According to patent US5488060A, “Substituted thiadiazoles, compositions containing them and their use as antimicrobial and marine antifouling agents” (The Dow Chemical Company, priority 1994, dated 1996):
Values after ≈ are worked out from the molar mass of the structure shown. Where two headings read alike, the source gives them in different places.

Legend:
Format in all cases: cell-based
Proteus vulgaris (Pv) = assay: Minimum inhibitory concentration (MIC) in nutrient agar, Proteus vulgaris; details: 48 h
Method: (§1) The antimicrobial activity of the compounds of the present invention is set forth as the minimum inhibitory concentration (MIC) for the active compounds and is determined for nine (9) bacteria, using nutrient agar, and seven (7) yeast and fungi, using malt yeast agar. This determination is conducted using a one percent solution of the test compound prepared in a mixture of acetone and water.
(§2) Nutrient agar is prepared at pH 6.8, representing a neutral medium, and at pH 8.2, representing an alkaline medium. The nutrient agars are prepared by adding 23 g of nutrient agar to one-liter of deionized water. In addition, the alkaline medium is prepared by adjusting a 0.04M solution of N-[tris-(hydroxymethyl)methyl]glycine buffered deionized water with concentrated sodium hydroxide to a pH of 8.5.
(§3) The test tubes containing the agar are cooled in a water bath until the temperature of the agar is 48° C. Then, an appropriate amount of the one percent solution of the test compound is added (except in the controls where no compound is added) to the respective test tubes so that the final concentrations are 500, […], 100, 50, 25, 10, 5, 2.5, 1.0 and zero parts per million of the test compound in the agar, thus having a known concentration of test compound dispersed therein. The contents of the test tubes are then transferred to respective petri plates. After drying for 24 hours, the petri plates containing nutrient agar are inoculated with bacteria and those containing malt yeast agar are inoculated with yeast and fungi.
(§4) The inoculation with bacteria is accomplished by using the following procedure. Twenty-four hour-cultures of each of the bacteria are prepared by incubating the respective bacteria in tubes containing nutrient broth for 24 hours at 30° C. in a shaker. Dilutions of each of the 24 hour-cultures are made so that nine separate suspensions (one for each of the nine test bacteria) are made, each containing 10^8 colony forming units (CFU) per mL of suspension of a particular bacteria. Aliquots of 0.3 mL of each of the bacterial suspensions are used to fill the individual wells of Steer's Replicator. For each microbial suspension, 0.3 mL was used to fill three wells (i.e., three wells of 0.3 mL each) so that for the nine different bacteria, 27 wells are filled. The Steer's Replicator is then used to inoculate both the neutral and alkaline pH nutrient agar petri plates.
(§5) The inoculated petri plates are incubated at 30° C. for 48 hours and then read to determine if the test compound which is incorporated into the agar prevented growth of the respective bacteria.

Candida albicans (Ca) = assay: Minimum inhibitory concentration (MIC) in malt yeast agar, Candida albicans
Method: as §1
(§6) Malt yeast agar is prepared at pH 5.5 by adding 3 g yeast extract and 45 g malt agar per liter of deionized water. The specific agar is dispensed in 30 mL aliquots into 25×200 mm test tubes, capped and autoclaved for 15 minutes at 115° C.
as §3
(§7) The inoculation with the yeast and fungi is accomplished as follows. Cultures of yeast and fungi are incubated for seven days on malt yeast agar at 30° C. These cultures are used to prepare suspensions by the following procedure. A suspension of each organism is prepared by adding 10 mL of sterile saline and 10 microliters of octylphenoxy polyethoxy ethanol to the agar slant of yeast or fungi. The sterile saline/octylphenoxy potyethoxy ethanol solution is then agitated with a sterile swab to suspend the microorganism grown on the slant. Each resulting suspension is diluted into sterile saline (1 part suspension: 9 parts sterile saline). Aliquots of these dilutions are placed in individual wells of Steer's Replicator and petri plates inoculated as previously described. The petri plates are incubated at 30° C. and read after 48 hours for yeast and 72 hours for fungi.

[1] = tested on: Pseudomonas aeruginosa (Pa); assay: Minimum inhibitory concentration (MIC) in nutrient agar, Pseudomonas aeruginosa; details: 30° C., 48 hours, read-out: Minimum Inhibitory Concentration, Pa
Method: as §1, §2, §3, §4, §5

Bacillus subtilis (Bs) = assay: Minimum inhibitory concentration (MIC) in nutrient agar, Bacillus subtilis
Method: as §1, §2, §3, §4, §5

[2] = tested on: Saccharomyces cerevisiae (Sc); assay: Minimum inhibitory concentration (MIC) in malt yeast agar, Saccharomyces cerevisiae; details: pH 5.5, malt yeast agar, 30° C., 48 hours for yeast, read-out: Minimum Inhibitory Concentration, SC
Method: as §1, §6, §3, §7

[3] = tested on: Enterobacter aerogenes (Ea); assay: Minimum inhibitory concentration (MIC) in nutrient agar, Enterobacter aerogenes; details: Klebsiella aerogenes, 48 h
Method: as §1, §2, §3, §4, §5

Trichoderma viride (Tv) = assay: Minimum inhibitory concentration (MIC) in malt yeast agar, Trichoderma viride
Method: as §1, §6, §3, §7

[4] = tested on: Staphylococcus aureus (Sa); assay: Minimum inhibitory concentration (MIC) in nutrient agar, Staphylococcus aureus
Method: as §1, §2, §3, §4, §5

[5] = tested on: Pseudomonas aeruginosa (PRD-10); assay: Minimum inhibitory concentration (MIC) in nutrient agar, Pseudomonas aeruginosa PRD-10; details: 48 h
Method: as §1, §2, §3, §4, §5

[6] = tested on: Salmonella choleraesuis (Se); assay: Minimum inhibitory concentration (MIC) in nutrient agar, Salmonella choleraesuis; details: Salmonella enterica, 48 h
Method: as §1, §2, §3, §4, §5

Escherichia coli (Ec) = assay: Minimum inhibitory concentration (MIC) in nutrient agar, Escherichia coli; details: 48 h
Method: as §1, §2, §3, §4, §5

[7] = tested on: Klebsiella pneumoniae (Kp); assay: Minimum inhibitory concentration (MIC) in nutrient agar, Klebsiella pneumoniae
Method: as §1, §2, §3, §4, §5

Aspergillus niger (An) = assay: Minimum inhibitory concentration (MIC) in malt yeast agar, Aspergillus niger; details: pH 5.5; malt yeast agar, 30° C., 72 hours for fungi; read-out: Minimum Inhibitory Concentration, An
Method: as §1, §6, §3, §7

Fusarium oxysporum (Fo) = assay: Minimum inhibitory concentration (MIC) in malt yeast agar, Fusarium oxysporum; details: 72 h, pH 5.5, read-out: Minimum Inhibitory Concentration, Fo
Method: as §1, §6, §3, §7

[8] = tested on: Penicillium chrysogenum (Pc); assay: Minimum inhibitory concentration (MIC) in malt yeast agar, Penicillium chrysogenum; details: pH 5.5; malt yeast agar, 30° C., 72 hours for fungi; read-out: Minimum Inhibitory Concentration, PC
Method: as §1, §6, §3, §7

[9] = tested on: Aureobasidium pullulan (Ap); assay: Minimum inhibitory concentration (MIC) in malt yeast agar, Aureobasidium pullulan
Method: as §1, §6, §3, §7

[10] = pH 6.8, read-out: Minimum Inhibitory Concentration, Pv
[11] = pH 8.2, read-out: Minimum Inhibitory Concentration, Pv
[12] = 48 h, pH 8.2, read-out: Minimum Inhibitory Concentration, Bs
[13] = pH 6.8, read-out: Minimum Inhibitory Concentration, Ea
[14] = pH 8.2, read-out: Minimum Inhibitory Concentration, Ea
[15] = 48 h, pH 8.2, read-out: Minimum Inhibitory Concentration, Sa
[16] = pH 6.8, nutrient agar, 30° C., 48 hours, read-out: Minimum Inhibitory Concentration, Sa
[17] = pH 6.8, read-out: Minimum Inhibitory Concentration, PRD
[18] = pH 8.2, read-out: Minimum Inhibitory Concentration, PRD
[19] = pH 6.8, read-out: Minimum Inhibitory Concentration, SC
[20] = pH 8.2, read-out: Minimum Inhibitory Concentration, SC
[21] = pH 6.8, read-out: Minimum Inhibitory Concentration, Ec
[22] = pH 8.2, read-out: Minimum Inhibitory Concentration, Ec
[23] = 48 h, pH 8.2, read-out: Minimum Inhibitory Concentration, Kp
[24] = pH 6.8, nutrient agar, 30° C., 48 hours, read-out: Minimum Inhibitory Concentration, Kp

COc1ccc(-c2nsnc2SC#N)cc1 [Example VIII, 4-(4-Methoxyphenyl)-3-thiocyanato-1,2,5-thiadiazole]
MIC (Proteus vulgaris (Pv); [10]): > 500 µg/mL
MIC (Proteus vulgaris (Pv); [11]): > 500 µg/mL
MIC (Candida albicans (Ca); 48 h, pH 5.5, read-out: Minimum Inhibitory Concentration, Ca): 25 µg/mL (≈ 100 µM)
MIC ([1]; pH 6.8, nutrient agar): > 500 µg/mL
MIC ([1]; pH 8.2, nutrient agar): > 500 µg/mL
MIC (Bacillus subtilis (Bs); 48 h, pH 6.8, read-out: Minimum Inhibitory Concentration, Bs): 100 µg/mL (≈ 401 µM)
MIC (Bacillus subtilis (Bs); [12]): > 500 µg/mL
MIC [2]: 9 µg/mL (≈ 36.1 µM)
MIC [3, 13]: > 500 µg/mL
MIC [3, 14]: > 500 µg/mL
MIC (Trichoderma viride (Tv); pH 5.5, malt yeast agar, 30° C., 72 hours for fungi, read-out: Minimum Inhibitory Concentration, Tv): 9 µg/mL (≈ 36.1 µM)
MIC [4, 15]: > 500 µg/mL
MIC [4, 16]: > 500 µg/mL
MIC [5, 17]: > 500 µg/mL
MIC [5, 18]: > 500 µg/mL
MIC [6, 19]: > 500 µg/mL
MIC [6, 20]: > 500 µg/mL
MIC (Escherichia coli (Ec); [21]): > 500 µg/mL
MIC (Escherichia coli (Ec); [22]): > 500 µg/mL
MIC [7, 23]: > 500 µg/mL
MIC [7, 24]: > 500 µg/mL
MIC (Aspergillus niger (An)): 100 µg/mL (≈ 401 µM)
MIC (Fusarium oxysporum (Fo)): 50 µg/mL (≈ 201 µM)
MIC [8]: > 500 µg/mL
MIC ([9]; pH 5.5, malt yeast agar, 30° C., read-out: Minimum Inhibitory Concentration, Ap): 9 µg/mL (≈ 36.1 µM)

CS(=O)(=O)c1ccc(-c2nsnc2SC#N)cc1 [Example XI, 4-(4-Methylsulfonylphenyl)-3-thiocyanato-l,2,5-thiadiazole]
MIC (Proteus vulgaris (Pv); [10]): 500 µg/mL (≈ 1680 µM)
MIC (Proteus vulgaris (Pv); [11]): 500 µg/mL (≈ 1680 µM)
MIC (Candida albicans (Ca); pH 5.5, malt yeast agar, 30° C., 48 hours for yeast, read-out: Minimum Inhibitory Concentration, Ca): 500 µg/mL (≈ 1680 µM)
MIC ([1]; pH 6.8, nutrient agar): 500 µg/mL (≈ 1680 µM)
MIC ([1]; pH 8.2, nutrient agar): 500 µg/mL (≈ 1680 µM)
MIC (Bacillus subtilis (Bs); [12]): 500 µg/mL (≈ 1680 µM)
MIC (Bacillus subtilis (Bs); pH 6.8, nutrient agar, 30° C., 48 hours, read-out: Minimum Inhibitory Concentration, Bs): 25 µg/mL (≈ 84.1 µM)
MIC [2]: 250 µg/mL (≈ 841 µM)
MIC [3, 13]: 500 µg/mL (≈ 1680 µM)
MIC [3, 14]: 500 µg/mL (≈ 1680 µM)
MIC (Trichoderma viride (Tv); 72 h, pH 5.5, read-out: Minimum Inhibitory Concentration, Tv): 250 µg/mL (≈ 841 µM)
MIC [4, 15]: 500 µg/mL (≈ 1680 µM)
MIC [4, 16]: 100 µg/mL (≈ 336 µM)
MIC [5, 17]: 500 µg/mL (≈ 1680 µM)
MIC [5, 18]: 500 µg/mL (≈ 1680 µM)
MIC [6, 19]: 500 µg/mL (≈ 1680 µM)
MIC [6, 20]: 500 µg/mL (≈ 1680 µM)
MIC (Escherichia coli (Ec); [21]): 500 µg/mL (≈ 1680 µM)
MIC (Escherichia coli (Ec); [22]): 500 µg/mL (≈ 1680 µM)
MIC [7, 23]: 500 µg/mL (≈ 1680 µM)
MIC [7, 24]: 250 µg/mL (≈ 841 µM)
MIC (Aspergillus niger (An)): 500 µg/mL (≈ 1680 µM)
MIC (Fusarium oxysporum (Fo)): 100 µg/mL (≈ 336 µM)
MIC [8]: 500 µg/mL (≈ 1680 µM)
MIC ([9]; pH 5.5, read-out: Minimum Inhibitory Concentration, Ap): 50 µg/mL (≈ 168 µM)
